# Tests used:
# [1] = target: [GSPT1]-[compound of formula (I)]-[CRBN/DDB1] complex (Homo sapiens, UniProt P15170+Q96SW2); assay: AlphaLISA ternary complex formation assay (GSPT1); type: binding; details: 0.5 h; 1 μM compound; normalized to reference compound CC-885; read-out: Normalized AlphaLISA ternary complex average signal at 1 μM molecule
# Outline: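 Biotinylated GSPT1 on streptavidin donor beads and 6×His-CRBN/DDB1 on anti-His acceptor beads (each 200 nM before mixing) in HBS pH 7.4 with 0.1% Tween-20 and 1 mM DTT, 2% DMSO final, 30 min at 25 °C. AlphaLISA luminescence is normalized between DMSO background and the reference compound's maximum.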
# [2] = target: T1, [IKZF2 ZF2]-[compound]-[CRBN/DDB1] ternary complex (Homo sapiens, UniProt Q96SW2+Q9UKS7); assay: AlphaLISA assay for off-target recruitment detection, IKZF2 ZF2; type: binding; details: 1 μM compound; normalized to Helios modulator; read-out: Normalized ternary complex response, IKZF2 ZF2
# T1 construct: IKZF2 ZF2
# Outline: (§1)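 Neo-substrate with 40 μg/ml donor beads and 200 nM 6×His-CRBN/DDB1 with 40 μg/ml anti-His acceptor beads were each prepared in PBS pH 7.4 with Tween-20 and 1 mM DTT, preincubated 30 min at RT, then mixed. Compounds at 2% DMSO were incubated 30 min at 25 °C, read at 680/615 nm, and normalised between DMSO background and reference glue maximum.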
# [3] = target: [CK1α]-[compound]-[CRBN/DDB1] ternary complex (Homo sapiens, UniProt P48729+Q96SW2); assay: AlphaLISA assay for off-target recruitment detection, CK1α; type: binding; details: 1 μM compound; normalized to FPFT-2216; read-out: Normalized ternary complex response, CK1α
# Outline: as §1
# [4] = target: T2, GSPT1-HiBiT protein in GSPT1-HiBiT HEK293 cells (Homo sapiens, UniProt P15170+Q96SW2); assay: GSPT1 degradation assay using HiBiT system (Nano-Glo HiBiT lytic assay); type: cell-based; details: 6 hours treatment; for DC50: read-out: HiBiT lytic assay Geomean absolute DC50
# T2 construct: endogenous in cells; host or cells: HEK293 (CRISPR/Cas9 knock-in of HiBiT at the GSPT1 locus)
# Description: The effect of selected compounds of the invention on GSPT1 protein levels was investigated, using the GSPT1-HiBiT HEK293 cell line and the Nano-Glo HiBiT degradation assay protocol below.
# GSPT1-HiBiT HEK293 cells were generated in-house using the HEK293 parental cells (ATCC, cat. no 70016364) and the CRISPR/Cas9 system. HEK293 cells were transformed with pSpCas9-BB-2A-Puro v2.0 plasmid carrying gRNA targeting the C-terminus of GSPT1 and ssODN template containing the HiBiT tag sequence with flanking homology sequences. Neon Transfection System (Thermo Fisher Scientific) was used for electroporation. HEK293 GSPT1-HiBiT cells were cultured with DMEM Glutamax (Gibco) supplemented with 10% heat inactivated FBS (Gibco). After transfection the culture medium was changed to DMEM Glutamax with 10% heat-inactivated FBS and 1% Penicillin-Streptomycin (Biowest) supplemented with Puromycin (2 μg/ml; Invivogen) for clonal selection. In order to isolate single cell clones for further validation and analysis, limiting dilution cloning in 96-well plates was performed. When the single clones reached confluency, HiBiT Lytic Assay (Promega) was performed in order to identify HiBiT positive clones. The clone selected for further studies was verified and validated using genotyping and HiBiT Blotting (Promega).
# Cells were maintained in DMEM Glutamax medium, supplemented with 1% penicillin/streptomycin and 10% Fetal Bovine Serum (FBS) at 37° C., 5% CO2. Compounds were stored frozen as 20 mM DMSO stocks.
# For the Nano-Glo HiBiT assay, cells were seeded onto 384-well white solid bottom plate at 2×10^3 cells/well in 40 μL using the Agilent BioTek MultiFlo FX Multimode Dispenser and incubated overnight. Following overnight incubation (37° C., 5% CO2) cells were treated with the test compounds and vehicle only (DMSO) control using the Echo 555 Liquid Handler. Twelve data-point compound titration curve with concentrations ranging from 10 μM to 0.03 nM was used. Final DMSO concentration was kept constant at 0.25% v/v across the assay plate. After 6 hours of incubation (37° C., 5% CO2), plates were removed from the incubator and let to equilibrate to RT. Luminescent signal detection was conducted using the Nano-Glo HiBiT Lytic Detection System (Promega, cat. nr N3050). Nano-Glo HiBiT Lytic Reagent was prepared freshly by diluting the LgBiT Protein (1:100 vol/vol) and the Nano-Glo HiBiT Lytic Substrate (1:50 vol/vol) in the relevant volume of the Nano-Glo HiBiT Lytic Buffer. 40 μL of the HiBiT Lytic Reagent was added per well, plates were shaken to facilitate lysis (350 rpm, 5 min, RT) and incubated in the dark for the following 10 min. Luminescence was read using the PHERAstar multimode plate reader (BMG LABTECH). The raw data (the relative luminescence unit values, RLU) were uploaded under the relevant protocol and analysed in CDDVault data management platform. Luminescence (RLU) values were normalized to the controls, and reported absolute DC50 values and Dmax values were calculated in CDDVault using non-linear regression and appropriate equations.
# T2 sequence (P15170 whole entry): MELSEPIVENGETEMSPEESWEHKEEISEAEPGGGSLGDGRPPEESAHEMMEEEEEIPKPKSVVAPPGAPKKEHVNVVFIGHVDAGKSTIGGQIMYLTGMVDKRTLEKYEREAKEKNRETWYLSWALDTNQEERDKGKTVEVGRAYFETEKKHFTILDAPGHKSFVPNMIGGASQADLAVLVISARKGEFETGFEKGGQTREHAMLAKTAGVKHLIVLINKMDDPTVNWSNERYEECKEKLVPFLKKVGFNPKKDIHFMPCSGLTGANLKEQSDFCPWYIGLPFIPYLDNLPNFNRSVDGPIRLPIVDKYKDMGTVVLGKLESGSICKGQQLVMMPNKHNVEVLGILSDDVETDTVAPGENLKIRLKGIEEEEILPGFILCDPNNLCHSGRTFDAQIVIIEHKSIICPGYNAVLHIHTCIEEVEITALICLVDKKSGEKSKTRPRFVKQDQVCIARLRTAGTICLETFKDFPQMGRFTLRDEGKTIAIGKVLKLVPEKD
# T2 sequence (Q96SW2 whole entry): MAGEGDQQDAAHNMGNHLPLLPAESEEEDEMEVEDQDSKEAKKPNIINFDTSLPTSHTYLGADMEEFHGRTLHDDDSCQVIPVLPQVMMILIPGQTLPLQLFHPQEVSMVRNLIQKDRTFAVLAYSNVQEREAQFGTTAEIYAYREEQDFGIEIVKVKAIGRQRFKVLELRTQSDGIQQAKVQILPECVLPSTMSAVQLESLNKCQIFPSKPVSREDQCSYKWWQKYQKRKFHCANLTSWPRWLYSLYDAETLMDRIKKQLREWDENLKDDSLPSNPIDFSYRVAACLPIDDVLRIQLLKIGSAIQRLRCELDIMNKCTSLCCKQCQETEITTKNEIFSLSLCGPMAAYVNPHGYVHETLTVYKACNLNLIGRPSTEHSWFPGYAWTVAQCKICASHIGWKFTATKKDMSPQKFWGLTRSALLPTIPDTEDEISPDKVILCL
# T2 sequence (Q16531 whole entry partner): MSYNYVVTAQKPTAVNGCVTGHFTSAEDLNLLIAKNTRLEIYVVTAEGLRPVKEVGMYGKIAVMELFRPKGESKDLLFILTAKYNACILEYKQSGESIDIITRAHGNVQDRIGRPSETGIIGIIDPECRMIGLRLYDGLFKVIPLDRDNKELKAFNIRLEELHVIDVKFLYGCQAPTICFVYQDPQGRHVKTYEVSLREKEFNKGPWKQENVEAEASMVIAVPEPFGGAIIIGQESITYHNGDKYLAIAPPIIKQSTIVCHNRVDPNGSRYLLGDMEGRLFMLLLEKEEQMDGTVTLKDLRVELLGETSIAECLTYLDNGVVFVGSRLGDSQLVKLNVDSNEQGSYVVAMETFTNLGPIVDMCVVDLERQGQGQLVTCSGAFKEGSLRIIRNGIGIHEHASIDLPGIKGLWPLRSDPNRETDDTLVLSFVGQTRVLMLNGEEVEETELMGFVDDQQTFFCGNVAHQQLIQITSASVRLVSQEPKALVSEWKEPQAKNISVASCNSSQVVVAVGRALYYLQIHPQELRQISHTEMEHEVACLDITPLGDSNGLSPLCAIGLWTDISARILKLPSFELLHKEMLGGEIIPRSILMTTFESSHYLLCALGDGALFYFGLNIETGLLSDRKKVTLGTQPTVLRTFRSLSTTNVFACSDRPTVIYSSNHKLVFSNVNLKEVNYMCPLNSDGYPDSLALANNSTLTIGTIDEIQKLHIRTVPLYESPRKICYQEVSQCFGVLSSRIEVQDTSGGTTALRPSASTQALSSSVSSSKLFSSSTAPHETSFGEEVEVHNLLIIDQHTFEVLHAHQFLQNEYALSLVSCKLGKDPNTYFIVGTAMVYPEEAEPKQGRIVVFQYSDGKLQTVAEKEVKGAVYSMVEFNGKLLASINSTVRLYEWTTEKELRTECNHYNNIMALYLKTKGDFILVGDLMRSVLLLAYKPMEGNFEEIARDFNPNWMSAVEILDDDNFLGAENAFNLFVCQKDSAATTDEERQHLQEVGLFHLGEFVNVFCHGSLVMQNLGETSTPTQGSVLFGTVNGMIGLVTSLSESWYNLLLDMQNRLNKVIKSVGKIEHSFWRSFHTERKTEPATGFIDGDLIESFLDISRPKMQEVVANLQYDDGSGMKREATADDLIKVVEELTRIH
# Sequence of [GSPT1]-[compound of formula (I)]-[CRBN/DDB1] complex (P15170 whole entry): as the sequence (P15170 whole entry) above
# Sequence of [GSPT1]-[compound of formula (I)]-[CRBN/DDB1] complex (Q96SW2 whole entry): as the sequence (Q96SW2 whole entry) above
# Sequence of [GSPT1]-[compound of formula (I)]-[CRBN/DDB1] complex (Q16531 whole entry partner): as the sequence (Q16531 whole entry partner) above
# Sequence of [CK1α]-[compound]-[CRBN/DDB1] ternary complex (P48729 whole entry): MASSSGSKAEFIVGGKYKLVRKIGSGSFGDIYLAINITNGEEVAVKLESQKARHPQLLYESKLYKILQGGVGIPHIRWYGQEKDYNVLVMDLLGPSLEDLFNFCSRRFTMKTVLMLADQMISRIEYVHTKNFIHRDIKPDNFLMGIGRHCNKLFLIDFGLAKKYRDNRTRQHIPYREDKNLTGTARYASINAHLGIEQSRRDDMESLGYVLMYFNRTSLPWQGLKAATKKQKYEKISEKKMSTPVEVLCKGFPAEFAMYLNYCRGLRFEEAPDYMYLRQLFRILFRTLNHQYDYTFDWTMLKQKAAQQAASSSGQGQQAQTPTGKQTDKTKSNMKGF
# Sequence of [CK1α]-[compound]-[CRBN/DDB1] ternary complex (Q96SW2 whole entry): as the sequence (Q96SW2 whole entry) above
# Sequence of [CK1α]-[compound]-[CRBN/DDB1] ternary complex (Q16531 whole entry partner): as the sequence (Q16531 whole entry partner) above
# T1 sequence (Q9UKS7 140-162 limits assumed): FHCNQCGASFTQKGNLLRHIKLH
# T1 sequence (Q96SW2 whole entry): as the sequence (Q96SW2 whole entry) above
# T1 sequence (Q16531 whole entry partner): as the sequence (Q16531 whole entry partner) above
SMILES,activation at 1 µM [1] [%],activation at 1 µM [2] [%],activation at 1 µM [3] [%],Dmax [4] [%],DC50 [4] [nM]
"Cc1nc2cc(COC(=O)Nc3ccc(C(C)(C)C)cc3)ccc2cc1C1CCC(=O)NC1=O (stereo not shown) [Compound 8, (3-(2,6-dioxopiperidin-3-yl)-2-methylquinolin-7-yl)methyl (4-(tert-butyl)phenyl)carbamate]",> 50,< 10,< 10,≥ 75,< 10
"Cc1ccc(NC(=O)OCc2ccc3cc([C@H]4CCC(=O)NC4=O)c(C)nc3c2)cc1Cl [Compound 39, (3-(2,6-dioxopiperidin-3-yl)-2-methylquinolin-7-yl)methyl (3-chloro-4-methylphenyl)carbamate]",> 50,< 10,< 10,≥ 75,< 10
"Cc1nc2cc(COC(=O)Nc3cc(C(C)(C)C)no3)ccc2cc1N1CCC(=O)NC1=O [Compound 72, (3-(2,4-dioxotetrahydropyrimidin-1(2H)-yl)-2-methylquinolin-7-yl)methyl (3-(tert-butyl)isoxazol-5-yl)carbamate]",10 to 50,< 10,< 10,≥ 75,10 to 50
"Cc1nc2cc(COC(=O)Nc3nc(C(C)(C)C)no3)ccc2cc1C1CCC(=O)NC1=O (stereo not shown) [Compound 80, (3-(2,6-dioxopiperidin-3-yl)-2-methylquinolin-7-yl)methyl (3-(tert-butyl)-1,2,4-oxadiazol-5-yl)carbamate]",> 50,< 10,< 10,≥ 75,10 to 50
"Cc1nc2cc(COC(=O)Nc3cccc(-c4ccccc4)c3)ccc2cc1C1CCC(=O)NC1=O (stereo not shown) [Compound 46, (3-(2,6-dioxopiperidin-3-yl)-2-methylquinolin-7-yl)methyl [1,1′-biphenyl]-3-ylcarbamate]",10 to 50,< 10,< 10,≥ 75,10 to 50
"Cc1ccc(NC(=O)NCc2ccc3cc(N4CCC(=O)NC4=O)c(C)nc3c2)cc1Cl [Compound 27, 1-(3-chloro-4-methylphenyl)-3-((3-(2,4-dioxotetrahydropyrimidin-1(2H)-yl)-2-methylquinolin-7-yl)methyl)urea]",10 to 50,< 10,< 10,≥ 75,50 to 100
"Cc1ccc(NC(=O)OCc2cc3nc(C)c(C4CCC(=O)NC4=O)cc3cc2F)cc1Cl (stereo not shown) [Compound 49, (3-(2,6-dioxopiperidin-3-yl)-6-fluoro-2-methylquinolin-7-yl)methyl (3-chloro-4-methylphenyl)carbamate]",10 to 50,< 10,< 10,≥ 75,50 to 100
"Cc1ccc(NC(=O)CCc2ccc3cc(C4CCC(=O)NC4=O)c(C)nc3c2)cc1Cl (stereo not shown) [Compound 32, N-(3-chloro-4-methylphenyl)-3-(3-(2,6-dioxopiperidin-3-yl)-2-methylquinolin-7-yl)propanamide]",> 50,< 10,< 10,≥ 75,10 to 50
"Cc1ccc(NC(=O)OCc2cc(F)c3cc(C4CCC(=O)NC4=O)c(C)nc3c2)cc1Cl (stereo not shown) [Compound 22, (3-(2,6-dioxopiperidin-3-yl)-5-fluoro-2-methylquinolin-7-yl)methyl (3-chloro-4-methylphenyl)carbamate]",> 50,< 10,< 10,≥ 75,10 to 50
"Cc1nc2cc(COC(=O)Nc3ccc(N4CCOCC4)nc3)ccc2cc1C1CCC(=O)NC1=O (stereo not shown) [Compound 42, (3-(2,6-dioxopiperidin-3-yl)-2-methylquinolin-7-yl)methyl (6-morpholinopyridin-3-yl)carbamate]",> 50,< 10,< 10,≥ 75,10 to 50
"Cc1nc2cc(COC(=O)Nc3ccc4c(c3)OCCO4)ccc2cc1C1CCC(=O)NC1=O (stereo not shown) [Compound 15, (3-(2,6-dioxopiperidin-3-yl)-2-methylquinolin-7-yl)methyl (2,3-dihydrobenzo[b][1,4]dioxin-6-yl)carbamate]",10 to 50,< 10,< 10,≥ 75,< 10
"Cc1nc2cc(COC(=O)Nc3cc(OC(F)(F)F)ccc3F)ccc2cc1C1CCC(=O)NC1=O (stereo not shown) [Compound 6, (3-(2,6-dioxopiperidin-3-yl)-2-methylquinolin-7-yl)methyl (2-fluoro-5-(trifluoromethoxy)phenyl)carbamate]",10 to 50,< 10,< 10,≥ 75,10 to 50
"Cc1nc2cc(COC(=O)Nc3cccc(C(C)(C)C)c3)ccc2cc1C1CCC(=O)NC1=O (stereo not shown) [Compound 9, (3-(2,6-dioxopiperidin-3-yl)-2-methylquinolin-7-yl)methyl (3-(tert-butyl)phenyl)carbamate]",10 to 50,< 10,< 10,≥ 75,10 to 50
"Cc1nc2cc(COC(=O)Nc3cc(C(F)(F)F)no3)ccc2cc1C1CCC(=O)NC1=O (stereo not shown) [Compound 71, (3-(2,6-dioxopiperidin-3-yl)-2-methylquinolin-7-yl)methyl (3-(trifluoromethyl)isoxazol-5-yl)carbamate]",> 50,< 10,< 10,≥ 75,50 to 100
"Cc1nc2cc(COC(=O)Nc3cc(C4(C(F)(F)F)CC4)no3)ccc2cc1C1CCC(=O)NC1=O (stereo not shown) [Compound 81, (3-(2,6-dioxopiperidin-3-yl)-2-methylquinolin-7-yl)methyl (3-(1-(trifluoromethyl)cyclopropyl)isoxazol-5-yl)carbamate]",> 50,< 10,< 10,≥ 75,< 10
"Cc1nc2cc(COC(=O)Nc3ccc(-c4ccccc4)nc3)ccc2cc1C1CCC(=O)NC1=O (stereo not shown) [Compound 20, (3-(2,6-dioxopiperidin-3-yl)-2-methylquinolin-7-yl)methyl (6-phenylpyridin-3-yl)carbamate]",10 to 50,< 10,< 10,≥ 75,< 10
"Cc1nc2cc(COC(=O)Nc3csc(-c4ccccc4)c3)ccc2cc1C1CCC(=O)NC1=O (stereo not shown) [Compound 37, (3-(2,6-dioxopiperidin-3-yl)-2-methylquinolin-7-yl)methyl (5-phenylthiophen-3-yl)carbamate]",10 to 50,< 10,< 10,≥ 75,10 to 50

# From patent US20260232682A1, “GSPT1 DEGRADER COMPOUNDS” (Captor Therapeutics S.A., priority 2023, published 2026)
